Test results taken from article PMC7397142, “Discovery of Novel Tankyrase Inhibitors through Molecular Docking-Based Virtual Screening and Molecular Dynamics Simulation Studies” (Molecules, 2020).
Like-named read-outs stand apart in the source and are kept apart here.

Tests used:
[1] = biological target: T1, tankyrase 2 (TNKS2) (Homo sapiens, UniProt Q9H2K2); assay: immunochemical dot-blot assay of PAR accumulation, […] NAD+; 4PL fit gave […]; assay type: biochemical
T1 construct: catalytic fragment (human, recombinant, residues 849–1166)

[2] = biological target: T1, tankyrase 2 (TNKS2); assay: as above; assay type: biochemical; remark: listed apart in the source

T1 sequence (Q9H2K2 849-1166): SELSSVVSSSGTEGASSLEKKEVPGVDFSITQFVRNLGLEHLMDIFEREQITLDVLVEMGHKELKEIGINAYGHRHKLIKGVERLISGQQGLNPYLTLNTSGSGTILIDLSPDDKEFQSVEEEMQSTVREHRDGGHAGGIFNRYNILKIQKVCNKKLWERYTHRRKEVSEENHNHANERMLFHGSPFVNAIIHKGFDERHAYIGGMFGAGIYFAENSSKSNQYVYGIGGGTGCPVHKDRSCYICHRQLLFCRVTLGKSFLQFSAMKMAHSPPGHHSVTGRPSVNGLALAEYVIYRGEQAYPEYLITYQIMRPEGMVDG

| Compound | IC50 [1] [µM] | IC50 [2] [µM] |
| --- | --- | --- |
| COc1ccc2oc(=O)c(-c3ccc(OCC(=O)NCc4cccnc4)cc3)cc2c1 [A3] | < 10 |  |
| O=C(NCCNC(=O)c1cnccn1)c1ccc(-c2cc3ccccc3oc2=O)cc1 [A1] |  | < 0.01 |
